Test results taken from ChEMBL document CHEMBL5212743, “Selectivity Literature for EUbOPEN Chemogenomics Library wave 3” (2023).
One block for each molecule: values may come before it.

How the values were obtained:
[1] = target: Protein arginine N-methyltransferase 5 (Homo sapiens, UniProt O14744); experiment: Selectivity interaction (Protein methyltransferase panel (activity assay)) EUB0000211b PRMT5
[2] = target: Histone-lysine N-methyltransferase SETD7 (Homo sapiens) (UniProt Q8WTS6); experiment: Selectivity interaction (Protein methyltransferase panel (activity assay)) EUB0000211b SETD7
[3] = target: DNA (cytosine-5)-methyltransferase 1 (Homo sapiens, UniProt P26358); experiment: Selectivity interaction (Protein methyltransferase panel (activity assay)) EUB0000211b DNMT1
[4] = target: Protein arginine N-methyltransferase 9 (Homo sapiens) (UniProt Q6P2P2); experiment: Selectivity interaction (Protein methyltransferase panel (activity assay)) EUB0000211b PRMT9
[5] = target: N-lysine methyltransferase SMYD2 (Homo sapiens, UniProt Q9NRG4); experiment: Selectivity interaction (Protein methyltransferase panel (activity assay)) EUB0000211b SMYD2
[6] = target: Histone-lysine N-methyltransferase, H3 lysine-79 specific (Homo sapiens, UniProt Q8TEK3); experiment: Selectivity interaction (Protein methyltransferase panel (activity assay)) EUB0000211b DOT1L
[7] = target: Histone-lysine N-methyltransferase EHMT1 (Homo sapiens) (UniProt Q9H9B1); experiment: Selectivity interaction (Protein methyltransferase panel (activity assay)) EUB0000211b EHMT1
[8] = target: Histone-lysine N-methyltransferase EHMT2 (Homo sapiens) (UniProt Q96KQ7); experiment: Selectivity interaction (Protein methyltransferase panel (activity assay)) EUB0000211b EHMT2
[9] = target: Histone-lysine N-methyltransferase EZH1 (Homo sapiens) (UniProt Q92800); experiment: Selectivity interaction (Protein methyltransferase panel (activity assay)) EUB0000211b EZH1
[10] = target: Histone-lysine N-methyltransferase EZH2 (Homo sapiens, UniProt Q15910); experiment: Selectivity interaction (Protein methyltransferase panel (activity assay)) EUB0000211b EZH2
[11] = target: Histone-lysine N-methyltransferase, H3 lysine-36 specific (Homo sapiens) (UniProt Q96L73); experiment: Selectivity interaction (Protein methyltransferase panel (activity assay)) EUB0000211b NSD1
[12] = target: Histone-lysine N-methyltransferase NSD2 (Homo sapiens) (UniProt O96028); experiment: Selectivity interaction (Protein methyltransferase panel (activity assay)) EUB0000211b NSD2
[13] = target: Histone-lysine N-methyltransferase NSD3 (Homo sapiens) (UniProt Q9BZ95); experiment: Selectivity interaction (Protein methyltransferase panel (activity assay)) EUB0000211b NSD3
[14] = target: Protein arginine N-methyltransferase 1 (Homo sapiens, UniProt Q99873); experiment: Selectivity interaction (Protein methyltransferase panel (activity assay)) EUB0000211b PRMT1
[15] = target: Protein arginine N-methyltransferase 3 (Homo sapiens, UniProt O60678); experiment: Selectivity interaction (Protein methyltransferase panel (activity assay)) EUB0000211b PRMT3
[16] = target: Protein arginine N-methyltransferase 6 (Homo sapiens, UniProt Q96LA8); experiment: Selectivity interaction (Protein methyltransferase panel (activity assay)) EUB0000211b PRMT6
[17] = target: Protein arginine N-methyltransferase 8 (Homo sapiens, UniProt Q9NR22); experiment: Selectivity interaction (Protein methyltransferase panel (activity assay)) EUB0000211b PRMT8
[18] = target: N-lysine methyltransferase KMT5A (Homo sapiens) (UniProt Q9NQR1); experiment: Selectivity interaction (Protein methyltransferase panel (activity assay)) EUB0000211b SETD8
[19] = target: Histone-lysine N-methyltransferase SETDB1 (Homo sapiens, UniProt Q15047); experiment: Selectivity interaction (Protein methyltransferase panel (activity assay)) EUB0000211b SETDB1
[20] = target: Histone-lysine N-methyltransferase SUV39H2 (Homo sapiens, UniProt Q9H5I1); experiment: Selectivity interaction (Protein methyltransferase panel (activity assay)) EUB0000211b SUV39H2
[21] = target: Histone-lysine N-methyltransferase KMT5B (Homo sapiens, UniProt Q4FZB7); experiment: Selectivity interaction (Protein methyltransferase panel (activity assay)) EUB0000211b SUV420H1
[22] = target: Histone-lysine N-methyltransferase KMT5C (Homo sapiens, UniProt Q86Y97); experiment: Selectivity interaction (Protein methyltransferase panel (activity assay)) EUB0000211b SUV420H2
[23] = target: Tudor domain-containing protein 3 (Homo sapiens) (UniProt Q9H7E2); experiment: Selectivity interaction (Methyl-Lysine/Arginine panel (DSF assay)) EUB0000211b TDRD3; conditions: OICR-# does not inhibit the C/EBPa p30-Wdr5 interaction (Western Blot), PMID: #;, Selectivity Remarks In vitro, Selectivity Source Knowledge https://www.thesgc.org/chemical-probes/OICR-9429, S
Activated CDC42 kinase 1 = Activated CDC42 kinase 1 (Homo sapiens, UniProt Q07912); experiment: Selectivity interaction (KinaseProfiler™ (Millipore)) EUB0000640a TNK2; conditions: at 1 µM
[24] = target: Proto-oncogene tyrosine-protein kinase ROS (Homo sapiens) (UniProt P08922); experiment: Selectivity interaction (KinaseProfiler™ (Millipore)) EUB0000640a ROS1; conditions: at 1 µM
[25] = target: Tyrosine-protein kinase TXK (Homo sapiens) (UniProt P42681); experiment: Selectivity interaction (KinaseProfiler™ (Millipore)) EUB0000640a TXK; conditions: at 1 µM
[26] = target: T1, Cytoplasmic tyrosine-protein kinase BMX (Homo sapiens) (UniProt P51813); experiment: Selectivity interaction (KinaseProfiler™ (Millipore)) EUB0000640a BMX; conditions: at 1 µM
T1 sequence (whole entry): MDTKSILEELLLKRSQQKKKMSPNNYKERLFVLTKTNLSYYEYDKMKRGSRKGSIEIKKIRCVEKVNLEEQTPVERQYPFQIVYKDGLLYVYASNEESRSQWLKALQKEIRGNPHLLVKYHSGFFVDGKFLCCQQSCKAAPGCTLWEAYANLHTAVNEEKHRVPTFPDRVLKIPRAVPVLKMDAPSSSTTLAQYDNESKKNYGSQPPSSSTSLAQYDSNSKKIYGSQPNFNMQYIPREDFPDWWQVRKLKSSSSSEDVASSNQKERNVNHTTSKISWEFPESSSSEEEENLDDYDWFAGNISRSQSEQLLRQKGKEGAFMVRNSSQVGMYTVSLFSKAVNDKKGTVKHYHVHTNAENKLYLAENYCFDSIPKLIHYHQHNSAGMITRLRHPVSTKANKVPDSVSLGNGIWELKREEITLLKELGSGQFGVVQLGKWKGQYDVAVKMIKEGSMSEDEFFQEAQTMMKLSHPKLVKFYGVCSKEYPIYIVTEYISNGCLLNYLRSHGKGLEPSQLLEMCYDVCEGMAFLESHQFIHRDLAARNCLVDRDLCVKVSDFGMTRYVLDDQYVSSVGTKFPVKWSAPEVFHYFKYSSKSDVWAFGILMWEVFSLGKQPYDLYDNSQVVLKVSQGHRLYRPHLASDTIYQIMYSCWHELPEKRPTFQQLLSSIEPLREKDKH

[27] = target: T2, Cyclin-G-associated kinase (Homo sapiens) (UniProt O14976); experiment: Selectivity interaction (KinomeScan (DiscoverX)) EUB0000691a GAK; conditions: at 10 µM
T2 sequence (whole entry): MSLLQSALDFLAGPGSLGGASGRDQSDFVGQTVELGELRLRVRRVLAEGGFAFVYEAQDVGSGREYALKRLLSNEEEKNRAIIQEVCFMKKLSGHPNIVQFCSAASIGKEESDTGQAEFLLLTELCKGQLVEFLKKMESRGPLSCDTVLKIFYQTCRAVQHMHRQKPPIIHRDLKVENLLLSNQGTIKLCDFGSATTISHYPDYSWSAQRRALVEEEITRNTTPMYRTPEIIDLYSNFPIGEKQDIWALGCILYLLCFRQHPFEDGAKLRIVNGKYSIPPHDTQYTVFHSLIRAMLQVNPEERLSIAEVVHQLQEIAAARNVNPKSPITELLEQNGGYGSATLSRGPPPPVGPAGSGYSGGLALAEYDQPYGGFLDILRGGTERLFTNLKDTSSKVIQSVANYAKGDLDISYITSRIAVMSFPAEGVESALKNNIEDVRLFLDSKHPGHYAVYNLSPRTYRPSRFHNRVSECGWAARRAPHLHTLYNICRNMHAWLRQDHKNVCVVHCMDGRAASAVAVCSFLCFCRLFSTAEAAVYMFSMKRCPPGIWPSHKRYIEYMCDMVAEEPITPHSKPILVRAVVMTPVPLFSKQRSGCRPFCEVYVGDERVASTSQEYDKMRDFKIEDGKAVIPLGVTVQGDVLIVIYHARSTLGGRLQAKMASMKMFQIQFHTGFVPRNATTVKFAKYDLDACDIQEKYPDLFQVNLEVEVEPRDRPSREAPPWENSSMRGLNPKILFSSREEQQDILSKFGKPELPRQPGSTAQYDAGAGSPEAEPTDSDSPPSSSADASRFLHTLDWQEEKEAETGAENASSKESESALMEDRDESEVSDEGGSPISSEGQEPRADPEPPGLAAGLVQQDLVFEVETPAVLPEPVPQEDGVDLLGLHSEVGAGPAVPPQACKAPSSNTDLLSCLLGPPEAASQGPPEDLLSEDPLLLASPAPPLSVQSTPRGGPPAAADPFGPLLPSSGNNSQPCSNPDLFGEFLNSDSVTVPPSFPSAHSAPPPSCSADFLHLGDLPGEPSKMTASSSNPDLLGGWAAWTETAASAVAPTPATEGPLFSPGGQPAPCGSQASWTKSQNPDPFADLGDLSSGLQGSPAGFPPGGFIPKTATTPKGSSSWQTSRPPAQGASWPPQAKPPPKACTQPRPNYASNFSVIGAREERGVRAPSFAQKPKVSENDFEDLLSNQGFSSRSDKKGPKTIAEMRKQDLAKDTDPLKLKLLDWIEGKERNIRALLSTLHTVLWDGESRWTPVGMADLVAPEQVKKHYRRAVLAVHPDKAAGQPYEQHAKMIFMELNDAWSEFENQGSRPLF

[28] = target: Serine/threonine-protein kinase 16 (Homo sapiens, UniProt O75716); experiment: Selectivity interaction (KinomeScan (DiscoverX)) EUB0000691a STK16; conditions: at 10 µM
[29] = target: Dual specificity protein kinase TTK (Homo sapiens) (UniProt P33981); experiment: Selectivity interaction (KinomeScan (DiscoverX)) EUB0000691a TTK; conditions: at 10 µM
[30] = target: Dual specificity mitogen-activated protein kinase kinase 4 (Homo sapiens) (UniProt P45985); experiment: Selectivity interaction (KinomeScan (DiscoverX)) EUB0000691a MAP2K4; conditions: at 10 µM
[31] = target: Tyrosine-protein kinase JAK1 (Homo sapiens, UniProt P23458); experiment: Selectivity interaction (KinomeScan (DiscoverX)) EUB0000691a JAK1@kinase 1; conditions: at 10 µM
[32] = target: Phosphatidylinositol 3-kinase C2 domain-containing subunit gamma (Homo sapiens) (UniProt O75747); experiment: Selectivity interaction (KinomeScan (DiscoverX)) EUB0000691a PIK3C2G; conditions: at 10 µM

Chain of DNA (cytosine-5)-methyltransferase 1 (P26358 whole entry): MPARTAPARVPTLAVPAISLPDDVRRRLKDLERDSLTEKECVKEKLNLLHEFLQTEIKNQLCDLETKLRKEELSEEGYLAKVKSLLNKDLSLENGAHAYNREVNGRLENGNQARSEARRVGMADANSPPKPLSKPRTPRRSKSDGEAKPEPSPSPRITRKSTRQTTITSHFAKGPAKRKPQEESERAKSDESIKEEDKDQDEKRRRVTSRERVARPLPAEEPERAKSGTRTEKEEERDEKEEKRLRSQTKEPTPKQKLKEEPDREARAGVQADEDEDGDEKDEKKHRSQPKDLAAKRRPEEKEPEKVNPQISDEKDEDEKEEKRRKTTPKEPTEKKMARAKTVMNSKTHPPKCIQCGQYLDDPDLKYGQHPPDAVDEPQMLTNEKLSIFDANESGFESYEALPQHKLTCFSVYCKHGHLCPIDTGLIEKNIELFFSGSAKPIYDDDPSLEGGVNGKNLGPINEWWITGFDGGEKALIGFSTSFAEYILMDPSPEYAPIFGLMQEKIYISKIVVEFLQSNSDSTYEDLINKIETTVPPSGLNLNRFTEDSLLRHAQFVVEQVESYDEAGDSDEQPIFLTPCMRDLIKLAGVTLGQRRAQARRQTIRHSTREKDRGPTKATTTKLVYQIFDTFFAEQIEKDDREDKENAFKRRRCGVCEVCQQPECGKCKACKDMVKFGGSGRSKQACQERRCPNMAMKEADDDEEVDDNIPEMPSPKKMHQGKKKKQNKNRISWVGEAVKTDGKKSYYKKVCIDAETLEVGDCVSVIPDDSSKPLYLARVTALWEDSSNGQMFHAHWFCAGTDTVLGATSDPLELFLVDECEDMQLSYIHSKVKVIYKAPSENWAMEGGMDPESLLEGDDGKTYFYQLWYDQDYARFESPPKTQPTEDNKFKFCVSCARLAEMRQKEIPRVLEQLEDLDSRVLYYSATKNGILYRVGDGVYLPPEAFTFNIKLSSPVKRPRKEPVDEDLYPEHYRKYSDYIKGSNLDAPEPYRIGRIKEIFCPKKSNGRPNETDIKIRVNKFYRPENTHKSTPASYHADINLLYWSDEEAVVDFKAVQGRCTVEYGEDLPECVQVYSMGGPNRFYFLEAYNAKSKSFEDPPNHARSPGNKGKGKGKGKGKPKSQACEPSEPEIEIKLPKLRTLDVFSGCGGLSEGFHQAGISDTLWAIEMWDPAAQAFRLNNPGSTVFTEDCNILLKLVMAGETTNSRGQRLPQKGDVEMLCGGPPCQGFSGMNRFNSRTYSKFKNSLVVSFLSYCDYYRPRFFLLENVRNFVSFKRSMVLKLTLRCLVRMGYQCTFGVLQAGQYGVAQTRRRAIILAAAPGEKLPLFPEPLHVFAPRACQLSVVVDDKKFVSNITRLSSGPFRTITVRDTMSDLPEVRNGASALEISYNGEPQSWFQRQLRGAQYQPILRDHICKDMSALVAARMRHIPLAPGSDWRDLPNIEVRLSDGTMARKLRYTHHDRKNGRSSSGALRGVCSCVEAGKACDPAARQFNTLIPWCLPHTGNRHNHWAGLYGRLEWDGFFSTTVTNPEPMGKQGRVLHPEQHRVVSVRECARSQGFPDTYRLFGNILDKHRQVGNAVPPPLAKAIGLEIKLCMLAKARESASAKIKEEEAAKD
Chain of Serine/threonine-protein kinase 16 (O75716 whole entry): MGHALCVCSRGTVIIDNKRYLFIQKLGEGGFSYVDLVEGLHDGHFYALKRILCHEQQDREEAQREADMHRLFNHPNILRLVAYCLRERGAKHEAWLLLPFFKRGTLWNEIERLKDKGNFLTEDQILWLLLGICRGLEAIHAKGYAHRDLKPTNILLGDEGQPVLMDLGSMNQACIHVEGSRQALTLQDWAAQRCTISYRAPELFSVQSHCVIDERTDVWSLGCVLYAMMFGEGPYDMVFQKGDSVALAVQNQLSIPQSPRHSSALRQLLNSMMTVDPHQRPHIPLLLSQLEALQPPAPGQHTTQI
Chain of Tyrosine-protein kinase TXK (Homo sapiens) (P42681 whole entry): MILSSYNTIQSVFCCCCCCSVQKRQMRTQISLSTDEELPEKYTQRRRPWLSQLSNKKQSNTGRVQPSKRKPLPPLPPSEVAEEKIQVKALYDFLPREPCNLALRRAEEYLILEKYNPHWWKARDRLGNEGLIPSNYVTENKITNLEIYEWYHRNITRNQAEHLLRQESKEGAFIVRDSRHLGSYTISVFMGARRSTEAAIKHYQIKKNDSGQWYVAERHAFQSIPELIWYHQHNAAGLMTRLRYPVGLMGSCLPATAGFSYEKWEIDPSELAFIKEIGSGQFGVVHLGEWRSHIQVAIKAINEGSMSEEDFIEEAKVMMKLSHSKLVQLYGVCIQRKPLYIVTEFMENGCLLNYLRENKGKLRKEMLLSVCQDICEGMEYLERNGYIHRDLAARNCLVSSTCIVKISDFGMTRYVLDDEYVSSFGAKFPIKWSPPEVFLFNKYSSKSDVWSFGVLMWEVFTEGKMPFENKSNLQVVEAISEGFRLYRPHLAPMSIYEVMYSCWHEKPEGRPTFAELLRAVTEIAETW
Chain of N-lysine methyltransferase KMT5A (Homo sapiens) (Q9NQR1 whole entry): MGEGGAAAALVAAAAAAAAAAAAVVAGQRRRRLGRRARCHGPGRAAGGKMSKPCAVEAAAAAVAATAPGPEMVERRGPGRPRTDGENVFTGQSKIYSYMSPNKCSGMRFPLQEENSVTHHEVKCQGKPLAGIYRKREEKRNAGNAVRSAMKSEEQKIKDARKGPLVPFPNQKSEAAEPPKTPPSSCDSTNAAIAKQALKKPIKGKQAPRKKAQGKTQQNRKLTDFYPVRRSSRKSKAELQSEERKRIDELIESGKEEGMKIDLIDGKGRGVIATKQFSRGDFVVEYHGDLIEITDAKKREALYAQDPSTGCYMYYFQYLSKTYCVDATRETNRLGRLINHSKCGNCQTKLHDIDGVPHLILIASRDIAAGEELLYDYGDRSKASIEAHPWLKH
Chain of Activated CDC42 kinase 1 (Q07912 whole entry, looked up): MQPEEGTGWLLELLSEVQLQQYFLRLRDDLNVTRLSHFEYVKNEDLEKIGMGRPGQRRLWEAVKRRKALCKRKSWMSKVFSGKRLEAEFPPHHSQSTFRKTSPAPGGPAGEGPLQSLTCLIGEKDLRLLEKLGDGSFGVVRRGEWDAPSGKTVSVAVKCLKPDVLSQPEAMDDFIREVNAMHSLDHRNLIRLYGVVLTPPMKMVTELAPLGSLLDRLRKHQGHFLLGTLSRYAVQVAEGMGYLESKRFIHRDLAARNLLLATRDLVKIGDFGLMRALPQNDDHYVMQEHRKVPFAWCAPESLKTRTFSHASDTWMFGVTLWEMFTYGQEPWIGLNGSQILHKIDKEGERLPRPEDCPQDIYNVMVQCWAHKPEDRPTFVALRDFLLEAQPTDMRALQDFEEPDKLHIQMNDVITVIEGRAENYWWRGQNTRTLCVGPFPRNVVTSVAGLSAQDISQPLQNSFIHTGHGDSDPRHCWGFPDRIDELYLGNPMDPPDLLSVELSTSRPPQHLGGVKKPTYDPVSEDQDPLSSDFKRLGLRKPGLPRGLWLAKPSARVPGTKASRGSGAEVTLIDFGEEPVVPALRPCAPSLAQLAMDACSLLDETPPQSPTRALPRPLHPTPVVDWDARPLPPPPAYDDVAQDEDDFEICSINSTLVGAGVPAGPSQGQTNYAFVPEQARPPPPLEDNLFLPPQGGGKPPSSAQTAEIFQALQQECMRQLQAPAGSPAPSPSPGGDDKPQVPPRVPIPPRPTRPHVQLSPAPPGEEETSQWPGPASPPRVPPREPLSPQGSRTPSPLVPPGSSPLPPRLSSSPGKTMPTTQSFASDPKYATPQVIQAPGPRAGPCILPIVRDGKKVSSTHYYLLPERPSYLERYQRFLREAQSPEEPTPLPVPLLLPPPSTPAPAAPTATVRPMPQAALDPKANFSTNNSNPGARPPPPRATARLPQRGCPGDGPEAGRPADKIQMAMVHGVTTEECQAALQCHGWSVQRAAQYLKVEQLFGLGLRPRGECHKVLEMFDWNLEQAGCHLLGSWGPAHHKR
Chain of Protein arginine N-methyltransferase 6 (Q96LA8 whole entry, looked up): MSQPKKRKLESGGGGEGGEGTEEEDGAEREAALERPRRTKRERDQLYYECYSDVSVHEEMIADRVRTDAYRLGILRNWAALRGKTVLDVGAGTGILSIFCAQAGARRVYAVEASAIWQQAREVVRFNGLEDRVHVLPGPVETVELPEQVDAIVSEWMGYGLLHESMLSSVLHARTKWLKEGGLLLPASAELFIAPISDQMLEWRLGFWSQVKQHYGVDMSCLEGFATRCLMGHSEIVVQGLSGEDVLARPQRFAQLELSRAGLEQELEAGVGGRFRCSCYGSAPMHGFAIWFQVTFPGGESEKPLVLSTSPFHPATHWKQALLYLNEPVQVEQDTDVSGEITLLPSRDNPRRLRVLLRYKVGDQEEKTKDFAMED
Chain of Protein arginine N-methyltransferase 8 (Q9NR22 2-394 limits assumed): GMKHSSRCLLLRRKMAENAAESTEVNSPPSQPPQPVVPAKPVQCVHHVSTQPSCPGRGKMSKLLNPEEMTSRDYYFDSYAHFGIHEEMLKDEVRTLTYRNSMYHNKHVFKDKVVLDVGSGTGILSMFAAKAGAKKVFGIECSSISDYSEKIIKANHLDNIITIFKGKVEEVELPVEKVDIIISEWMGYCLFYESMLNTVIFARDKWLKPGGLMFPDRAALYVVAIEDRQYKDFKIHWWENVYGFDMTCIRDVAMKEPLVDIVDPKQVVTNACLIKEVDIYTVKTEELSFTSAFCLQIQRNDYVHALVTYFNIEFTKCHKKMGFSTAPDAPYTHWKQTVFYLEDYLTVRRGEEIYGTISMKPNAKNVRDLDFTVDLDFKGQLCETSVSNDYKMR
Chain of Protein arginine N-methyltransferase 1 (Q99873 whole entry, looked up): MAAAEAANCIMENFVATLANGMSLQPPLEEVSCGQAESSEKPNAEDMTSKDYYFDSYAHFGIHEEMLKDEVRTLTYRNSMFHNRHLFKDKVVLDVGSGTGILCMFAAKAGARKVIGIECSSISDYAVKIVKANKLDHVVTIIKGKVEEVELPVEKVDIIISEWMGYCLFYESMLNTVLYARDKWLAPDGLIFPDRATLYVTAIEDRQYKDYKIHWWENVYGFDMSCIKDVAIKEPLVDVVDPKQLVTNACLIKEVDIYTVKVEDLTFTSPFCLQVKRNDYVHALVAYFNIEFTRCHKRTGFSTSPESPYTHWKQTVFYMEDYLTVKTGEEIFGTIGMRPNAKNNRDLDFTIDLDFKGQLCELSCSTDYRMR

% activity remaining [1]: > 90%
% activity remaining [2]: > 90%
% activity remaining [3]: > 90%
% activity remaining [4]: > 90%
% activity remaining [5]: > 90%
% activity remaining [6]: > 90%
% activity remaining [7]: > 90%
% activity remaining [8]: > 90%
% activity remaining [9]: > 90%
% activity remaining [10]: > 90%
% activity remaining [11]: > 90%
% activity remaining [12]: > 80%
% activity remaining [13]: > 90%
% activity remaining [14]: > 90%
% activity remaining [15]: > 90%
% activity remaining [16]: > 90%
% activity remaining [17]: > 90%
% activity remaining [18]: > 90%
% activity remaining [19]: > 90%
% activity remaining [20]: > 90%
% activity remaining [21]: > 90%
% activity remaining [22]: > 90%
dTm [23]: 1.8 K
SMILES: CN1CCN(c2ccc(-c3cccc(CN4CCOCC4)c3)cc2NC(=O)c2c[nH]c(=O)cc2C(F)(F)F)CC1

% of control (Activated CDC42 kinase 1): 10%
% of control [24]: 12%
% of control [25]: 14%
% of control [26]: 15%
SMILES: C[C@@H]1CCc2ncc(F)cc2[C@H]2CCCN2c2ccn3ncc(c3n2)C(=O)N1

% of control [27]: 0.2%
% of control [28]: 3.4%
% of control [29]: 4%
% of control [30]: 5.9%
% of control [31]: 2.2%
% of control [32]: 4.4%
SMILES: COc1ncc(-c2ccc3nccc(-c4ccnnc4)c3c2)cc1NS(=O)(=O)c1ccc(F)cc1F
